# According to US20220322667A1, “MICROBIOCIDAL USE” (DSM IP ASSETS B.V., priority 2019, published 2022):
# Experiments:
# Test in all cases: Antimicrobial challenge test in analogy to NF EN ISO 11930
# Assay type in all cases: cell-based
# [1] = system: Aspergillus brasiliensis; details: 0.3 wt.-% DBO, 24 h at 22° C.
# Method: The antimicrobial efficacy was assessed in analogy to the regulatory challenge test method (NF EN IS011930). Thus, mixtures of the respective active(s) with physiological serum with 0.85 wt.-% NaCl in the concentrations as outlined below are prepared under sterile conditions. Controls were also prepared under sterile conditions. The control as well as the mixtures were then deposed in 96-deep well plates (1.6 ml/well). […] After the contamination, each well was thoroughly mixed to ensure a homogeneous distribution of microbes. Then each plate was incubated at 22° C. for 24 h. The counting of the (remaining) population is carried out 24 h after contamination. Then, the average log reduction is calculated [−log 10{(value inoculum)/(value sample)}] which is represented in tables 1-5.
# [2] = system: Candida albicans
# Method: (§1) The antimicrobial efficacy was assessed in analogy to the regulatory challenge test method (NF EN IS011930). Thus, mixtures of the respective active(s) with physiological serum with 0.85 wt.-% NaCl in the concentrations as outlined below are prepared under sterile conditions. Controls were also prepared under sterile conditions. The control as well as the mixtures were then deposed in 96-deep well plates (1.6 ml/well). The wells were contaminated with the respective bacterial or the fungal strains at 2.5*10^5 to 5.6*10^5 cfu/ml for the bacteria and 1*10^4 to 2.5*10^4 cfu/ml for the fungi to obtain the initial contamination as outlined below. After the contamination, each well was thoroughly mixed to ensure a homogeneous distribution of microbes. Then each plate was incubated at 22° C. for 24 h. The counting of the (remaining) population is carried out 24 h after contamination. Then, the average log reduction is calculated [−log 10{(value inoculum)/(value sample)}] which is represented in tables 1-5.
# [3] = system: Staphylococcus aureus; details: 0.3 wt.-% HAP, 24 h
# Method: as §1
# [4] = system: Escherichia coli; details: 0.2 wt.-% Sodium Benzoate, 24 h
# Method: as §1
smiles,measurement,setting,value
"c1ccc2oc(-c3ccc(-c4nc5ccccc5o4)cc3)nc2c1 [DBO, 1,4-di(benzoxazol-2′-yl)benzene]",Log reduction,[1],−2.05
same,24 h colony count,[1]; inoculum 45000 cfu/ml,400 cfu/ml
same,Log reduction,"[2]; 0.3 wt.-% DBO, 24 h at 22° C.",−0.51
same,24 h colony count,"[2]; 0.3 wt.-% DBO, 24 h at 22° C., inoculum 32000 cfu/ml",10000 cfu/ml
"CC(=O)c1ccc(O)cc1 [HAP, 1-(4-hydroxyphenyl)-ethanone]",Log reduction,[3],−1.16
same,Staphylococcus aureus colony count,[3]; 550000 cfu/ml at 0 h,70000 cfu/ml
"OCCCO [PDO, 1,3-propanediol]",Log reduction,"[2]; 1.0 wt.-% PDO, 24 h",−0.24
same,Candida albicans colony count,"[2]; 1.0 wt.-% PDO, 24 h, 70000 cfu/ml at 0 h",40000 cfu/ml
"O=C([O-])c1ccccc1.[Na+] [Sodium Benzoate, sodium benzoate]",Log reduction,[4],+0.40
same,Escherichia coli colony count,[4]; 400000 cfu/ml at 0 h,1000000 cfu/ml
